Laboratory results published in the NIST ThermoML archive (doi:10.1021/je060371g).
± gives the expanded uncertainty stated by the source.

Conditions: Fluid (supercritical or subcritical phases), Buoyancy - hydrostatic balance with magnetic suspension - one sinker

SMILES: FC(F)Cl [chlorodifluoromethane]
- specific volume (423.2 K, 10000 kPa): 0.002006 ± 4.1e-05 m3/kg
- specific volume (423.2 K, 20000 kPa): 0.001169 ± 2.2e-05 m3/kg
- specific volume (423.2 K, 30000 kPa): 0.001037 ± 9e-06 m3/kg
- specific volume (423.2 K, 40000 kPa): 0.000973 ± 8e-06 m3/kg
- specific volume (423.2 K, 50000 kPa): 0.000923 ± 8e-06 m3/kg
- specific volume (423.2 K, 75000 kPa): 0.000856 ± 7e-06 m3/kg
- specific volume (423.2 K, 100000 kPa): 0.000814 ± 7e-06 m3/kg
- specific volume (423.2 K, 125000 kPa): 0.000784 ± 6e-06 m3/kg
- specific volume (423.2 K, 150000 kPa): 0.000759 ± 6e-06 m3/kg
- specific volume (423.2 K, 175000 kPa): 0.000738 ± 6e-06 m3/kg
- specific volume (423.2 K, 200000 kPa): 0.000721 ± 6e-06 m3/kg
- specific volume (423.2 K, 225000 kPa): 0.000707 ± 6e-06 m3/kg
- specific volume (423.2 K, 250000 kPa): 0.000695 ± 6e-06 m3/kg
- specific volume (423.2 K, 275000 kPa): 0.000682 ± 5e-06 m3/kg
- specific volume (423.2 K, 300000 kPa): 0.000673 ± 5e-06 m3/kg
- specific volume (423.2 K, 325000 kPa): 0.000661 ± 5e-06 m3/kg
- specific volume (423.2 K, 350000 kPa): 0.000655 ± 5e-06 m3/kg
- specific volume (423.2 K, 375000 kPa): 0.000645 ± 5e-06 m3/kg
- specific volume (423.2 K, 400000 kPa): 0.000638 ± 5e-06 m3/kg
- specific volume (423.2 K, 425000 kPa): 0.000631 ± 5e-06 m3/kg
- specific volume (423.2 K, 450000 kPa): 0.000625 ± 5e-06 m3/kg
- specific volume (423.2 K, 475000 kPa): 0.000619 ± 5e-06 m3/kg
- specific volume (423.2 K, 500000 kPa): 0.000614 ± 5e-06 m3/kg
- specific volume (473.2 K, 10000 kPa): 0.003216 ± 6.8e-05 m3/kg
- specific volume (473.2 K, 20000 kPa): 0.001531 ± 4.2e-05 m3/kg
- specific volume (473.2 K, 30000 kPa): 0.00121 ± 1.3e-05 m3/kg
- specific volume (473.2 K, 40000 kPa): 0.001089 ± 1e-05 m3/kg
- specific volume (473.2 K, 50000 kPa): 0.001015 ± 8e-06 m3/kg
- specific volume (473.2 K, 75000 kPa): 0.000922 ± 7e-06 m3/kg
- specific volume (473.2 K, 100000 kPa): 0.000867 ± 7e-06 m3/kg
- specific volume (473.2 K, 125000 kPa): 0.00083 ± 7e-06 m3/kg
- specific volume (473.2 K, 150000 kPa): 0.000797 ± 6e-06 m3/kg
- specific volume (473.2 K, 175000 kPa): 0.000772 ± 6e-06 m3/kg
- specific volume (473.2 K, 200000 kPa): 0.000754 ± 6e-06 m3/kg
- specific volume (473.2 K, 225000 kPa): 0.000735 ± 6e-06 m3/kg
- specific volume (473.2 K, 250000 kPa): 0.00072 ± 6e-06 m3/kg
- specific volume (473.2 K, 275000 kPa): 0.000705 ± 6e-06 m3/kg
- specific volume (473.2 K, 300000 kPa): 0.000694 ± 6e-06 m3/kg
- specific volume (473.2 K, 325000 kPa): 0.000683 ± 5e-06 m3/kg
- specific volume (473.2 K, 350000 kPa): 0.000671 ± 5e-06 m3/kg
- specific volume (473.2 K, 375000 kPa): 0.000661 ± 5e-06 m3/kg
- specific volume (473.2 K, 400000 kPa): 0.000652 ± 5e-06 m3/kg
- specific volume (473.2 K, 425000 kPa): 0.000644 ± 5e-06 m3/kg
- specific volume (473.2 K, 450000 kPa): 0.000637 ± 5e-06 m3/kg
- specific volume (473.2 K, 475000 kPa): 0.000629 ± 5e-06 m3/kg
- specific volume (473.2 K, 500000 kPa): 0.000623 ± 5e-06 m3/kg
- specific volume (523.2 K, 10000 kPa): 0.004117 ± 9.3e-05 m3/kg
- specific volume (523.2 K, 20000 kPa): 0.001932 ± 5.6e-05 m3/kg
- specific volume (523.2 K, 30000 kPa): 0.001431 ± 1.8e-05 m3/kg
- specific volume (523.2 K, 40000 kPa): 0.001241 ± 1.2e-05 m3/kg
- specific volume (523.2 K, 50000 kPa): 0.001126 ± 9e-06 m3/kg
- specific volume (523.2 K, 75000 kPa): 0.000987 ± 8e-06 m3/kg
- specific volume (523.2 K, 100000 kPa): 0.00092 ± 7e-06 m3/kg
- specific volume (523.2 K, 125000 kPa): 0.000872 ± 7e-06 m3/kg
- specific volume (523.2 K, 150000 kPa): 0.000835 ± 7e-06 m3/kg
- specific volume (523.2 K, 175000 kPa): 0.000808 ± 7e-06 m3/kg
- specific volume (523.2 K, 200000 kPa): 0.000785 ± 6e-06 m3/kg
- specific volume (523.2 K, 225000 kPa): 0.000764 ± 6e-06 m3/kg
- specific volume (523.2 K, 250000 kPa): 0.000744 ± 6e-06 m3/kg
- specific volume (523.2 K, 275000 kPa): 0.000728 ± 6e-06 m3/kg
- specific volume (523.2 K, 300000 kPa): 0.000714 ± 6e-06 m3/kg
- specific volume (523.2 K, 325000 kPa): 0.000698 ± 6e-06 m3/kg
- specific volume (523.2 K, 350000 kPa): 0.000687 ± 6e-06 m3/kg
- specific volume (523.2 K, 375000 kPa): 0.000676 ± 5e-06 m3/kg
- specific volume (523.2 K, 400000 kPa): 0.000666 ± 5e-06 m3/kg
- specific volume (523.2 K, 425000 kPa): 0.000658 ± 5e-06 m3/kg
- specific volume (523.2 K, 450000 kPa): 0.000649 ± 5e-06 m3/kg
- specific volume (523.2 K, 475000 kPa): 0.00064 ± 5e-06 m3/kg
- specific volume (523.2 K, 500000 kPa): 0.000633 ± 5e-06 m3/kg
- specific volume (573.2 K, 10000 kPa): 0.004957 ± 0.00011 m3/kg
- specific volume (573.2 K, 20000 kPa): 0.00244 ± 6.7e-05 m3/kg
- specific volume (573.2 K, 30000 kPa): 0.001751 ± 2.5e-05 m3/kg
- specific volume (573.2 K, 40000 kPa): 0.001393 ± 1.5e-05 m3/kg
- specific volume (573.2 K, 50000 kPa): 0.001258 ± 1.1e-05 m3/kg
- specific volume (573.2 K, 75000 kPa): 0.00105 ± 9e-06 m3/kg
- specific volume (573.2 K, 100000 kPa): 0.000968 ± 8e-06 m3/kg
- specific volume (573.2 K, 125000 kPa): 0.000911 ± 7e-06 m3/kg
- specific volume (573.2 K, 150000 kPa): 0.00087 ± 7e-06 m3/kg
- specific volume (573.2 K, 175000 kPa): 0.00084 ± 7e-06 m3/kg
- specific volume (573.2 K, 200000 kPa): 0.000814 ± 7e-06 m3/kg
- specific volume (573.2 K, 225000 kPa): 0.00079 ± 6e-06 m3/kg
- specific volume (573.2 K, 250000 kPa): 0.000767 ± 6e-06 m3/kg
- specific volume (573.2 K, 275000 kPa): 0.000749 ± 6e-06 m3/kg
- specific volume (573.2 K, 300000 kPa): 0.000732 ± 6e-06 m3/kg
- specific volume (573.2 K, 325000 kPa): 0.000717 ± 6e-06 m3/kg
- specific volume (573.2 K, 350000 kPa): 0.000704 ± 6e-06 m3/kg
- specific volume (573.2 K, 375000 kPa): 0.000692 ± 6e-06 m3/kg
- specific volume (573.2 K, 400000 kPa): 0.00068 ± 5e-06 m3/kg
- specific volume (573.2 K, 425000 kPa): 0.000671 ± 5e-06 m3/kg
- specific volume (573.2 K, 450000 kPa): 0.000663 ± 5e-06 m3/kg
- specific volume (573.2 K, 475000 kPa): 0.000651 ± 5e-06 m3/kg
- specific volume (573.2 K, 500000 kPa): 0.000643 ± 5e-06 m3/kg
